Key:
3T3-SA cells = assay: TNF-α/z-VAD (TZ)-induced necroptosis; type: cell-based, murine; settings: Supplementary Figures 3a, b
Experimental: (§1) Cells were seeded in 12-, 24- or 96-well plates at proper cell density. For necroptosis or apoptosis assays, cells were incubated with the indicated compound combinations at concentrations stated for 14–24 h. Smac mimetic and z-VAD-FMK were added 30–60 min before treatment with TNF-α, FasL or TRAIL. Cell viability was determined using CellTiter Glo Luminescent Cell Viability Assay (Promega, Fitchburg, WI, USA) according to the manufacturer's instructions. Luminescence was recorded with a SpectraMax M5Multimode plate reader (Molecular Devices, Sunnyvale, CA, USA). For flow cytometry-based determination of viability, cells were harvested, collected by centrifugation, washed once and resuspended in staining buffer (1 × PBS, 10% FBS). Cells were incubated with 0.5 μg/ml PI for 10 min at room temperature (RT) in the dark. Flow cytometric analyses were performed on an LSR Fortessa (BD Biosciences) and analyzed with FlowJo software version 7.6.3 (Tree Star Inc, Ashland, OR, USA). Cell size was evaluated by forward scatter. PI-negative normal-sized cells were considered living and data were normalized to values of untreated controls. For detection of apoptosis, cells were resuspended in Annexin V Binding Buffer (BioLegend, San Diego, CA, USA) and stained with 0.5 μg/ml PI and Alexa Fluor 647 Annexin V (BioLegend) according to manufacturer's instructions.

3T3-SA or L929 cells = assay: Drug toxicity dose-response, Supplementary Figure 3; type: cell-based, murine; settings: Mus musculus, read-out: IC50 (printed in Supplementary Figure 3)
Experimental: as §1

Cc1ccc(C(=O)Nc2ccc(CN3CCN(C)CC3)c(C(F)(F)F)c2)cc1C#Cc1cnc2cccnn12 [ponatinib, Ponatinib]
block of necroptotic cell death (3T3-SA cells): capable of blocking necroptotic cell death with comparable potency | IC50 (3T3-SA or L929 cells): 1100 nM
